The target of this assay is T1, SUMO E1 SAE1 Q312A mutant (Homo sapiens, UniProt Q9UBE0+Q9UBT2, Q312A).
T1 construct: GST (N); made in house; host or cells: Escherichia coli BL21
T1 sequence (Q9UBE0 1-346 Q312A): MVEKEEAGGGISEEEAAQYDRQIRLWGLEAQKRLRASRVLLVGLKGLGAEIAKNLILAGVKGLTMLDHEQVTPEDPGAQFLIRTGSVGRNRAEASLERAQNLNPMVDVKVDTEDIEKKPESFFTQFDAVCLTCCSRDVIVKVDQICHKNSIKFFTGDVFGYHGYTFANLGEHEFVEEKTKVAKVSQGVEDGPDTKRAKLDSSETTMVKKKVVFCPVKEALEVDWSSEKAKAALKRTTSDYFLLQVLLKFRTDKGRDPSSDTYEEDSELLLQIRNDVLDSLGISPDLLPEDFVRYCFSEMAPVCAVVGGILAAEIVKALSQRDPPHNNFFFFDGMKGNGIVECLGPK
T1 sequence (Q9UBT2 1-640): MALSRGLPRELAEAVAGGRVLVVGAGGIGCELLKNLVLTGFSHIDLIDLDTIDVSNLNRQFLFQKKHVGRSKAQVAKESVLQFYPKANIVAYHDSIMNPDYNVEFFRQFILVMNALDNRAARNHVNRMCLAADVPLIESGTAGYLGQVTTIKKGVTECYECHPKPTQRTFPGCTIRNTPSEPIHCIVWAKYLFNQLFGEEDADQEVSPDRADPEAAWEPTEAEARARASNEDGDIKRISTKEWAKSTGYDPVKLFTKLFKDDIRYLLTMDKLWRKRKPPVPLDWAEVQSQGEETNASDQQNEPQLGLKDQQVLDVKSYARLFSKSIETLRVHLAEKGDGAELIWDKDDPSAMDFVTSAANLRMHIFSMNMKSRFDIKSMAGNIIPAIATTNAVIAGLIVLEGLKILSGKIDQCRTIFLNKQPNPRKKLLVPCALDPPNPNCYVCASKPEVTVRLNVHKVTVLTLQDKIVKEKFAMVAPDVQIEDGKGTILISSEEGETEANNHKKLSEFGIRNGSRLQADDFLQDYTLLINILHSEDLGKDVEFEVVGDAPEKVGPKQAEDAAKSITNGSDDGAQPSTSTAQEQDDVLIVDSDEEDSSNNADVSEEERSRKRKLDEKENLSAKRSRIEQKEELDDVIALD
The assay is described as follows: SUMO E1 activity assays with SAE1 Q312A mutant. It is filed as biochemical. The procedure:
Figure 3 SUMO-specific activating enzyme, E1, is a direct target of N106. Mechanism of action of N106 on individual steps in the SUMOylation cascade in vitro. (a) Inorganic pyrophosphate resulting from ATP hydrolysis in E1-catalysed SUMO-1 activation in the presence of increasing concentration of N106 compound was assessed by fluorogenic pyrophosphate assay kit. Recombinant human SUMO-specific E1 (0.05 μM), human Ubc9 (0.25 μM), human SUMO-1 (12.5 μM) and ATP (1 mM) were incubated with increasing concentration of N106 for 30 min at 37 °C and quantified using a fluorescence microplate reader. (b) The SAE2-SUMO-1 conjugation was detected followed by western blotting with anti-SAE2 antibodies. SUMO E1 (0.05 μM), SUMO-1 (12.5 μM) and ATP (1 mM) were co-incubated with increasing concentration of N106 for 30 min at 37 °C. The reaction mixtures were separated on 7.5% SDS–PAGE gel under non-reducing conditions. (c) E2-SUMO-1 conjugation was visualized by western blotting with anti-Ubc9 antibody. SUMO E1 (0.05 μM), Ubc9 (0.25 μM), SUMO-1 (12.5 μM) and ATP (1 mM) were incubated without or with increasing concentration of N106 for 30 min at 37 °C. […] (e) ATP hydrolytic activity of WT and mutant SUMO E1 are determined. (f) The E1-SUMO-1 conjugation was detected followed by western blot analysis with anti-SAE2 antibody. *The SAE2-SUMO-1 conjugated bands. […]

We go through one compound from paper PMC4467461, “Small-molecule activation of SERCA2a SUMOylation for the treatment of heart failure” (Nature Communications, 2015).

In the case of `COc1ccc(-c2nnc(Nc3nc4c(OC)cccc4s3)o2)cc1` [Compound N106, N-(4-methoxybenzo[d]thiazol-2-yl)-5-(4-methoxyphenyl)-1,3,4-oxadiazol-2-amine], where the note is “Q312A mutant”, the “ATP hydrolysis activity with N106, compared with wild-type protein” value is reported as “significantly lower”. Further, the “SUMO E1-SUMO and SUMO E2-SUMO conjugations in the presence of N106, compared with WT” value (Q312A mutant SAE1) is recorded as “weaker”.
